Columns and labels:
[1] = tested on: adjuvant-associated biological themes in LV, SP, LN
Method in brief: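 Enrichment score S sums −log(p) over consensus themes whose names contain a pre-selected adjuvant-associated term such as "stress" or "cytokine". Consensus requires a theme in all three mice of a group, p<0.05. Themes come from TargetMine analysis of genes with eij/ei(c)>2.0, Fisher's exact test, Holm-Bonferroni-corrected.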

[2] = tested on: liver (LV); assay: Whole organ transcriptome (GeneChip microarray) of liver 6 h after adjuvant administration: sDEGs, hierarchical clustering; type: in vivo, C57BL/6 mice; settings: liver; for Number of gene probes with statistically significant changes (sDEGs), LV, Down: fold change <0.667, p<0.01, customized PA call=1; for Number of gene probes with statistically significant changes (sDEGs), LV, Down / Number of gene probes with statistically significant changes (sDEGs), LV, Up: 6 h after adjuvant; for Number of gene probes with statistically significant changes (sDEGs), LV, Up: fold change >1.5, p<0.01, customized PA call=1; on adjuvant group (cluster) in LV: key: G1 (interferon signaling); G2 (metabolism of lipids and lipoproteins); G3 (response to stress); G4 (response to wounding); G5 (phosphate-containing compound metabolic process); G6 (phagosome)
[3] = tested on: spleen (SP); assay: Whole organ transcriptome (GeneChip microarray) of spleen 6 h after adjuvant administration: sDEGs, hierarchical clustering; type: in vivo, C57BL/6 mice; settings: for Number of gene probes with statistically significant changes (sDEGs), SP, Down: fold change <0.667, p<0.01, customized PA call=1, 6 h after adjuvant; for Number of gene probes with statistically significant changes (sDEGs), SP, Up: fold change >1.5, p<0.01, customized PA call=1, 6 h after adjuvant; on adjuvant group (cluster) in SP: key: G1 (interferon signaling); G2 (metabolism of lipids and lipoproteins); G3 (response to stress); G4 (response to wounding); G5 (phosphate-containing compound metabolic process); G6 (phagosome)

CC(O)COC[C@H]1O[C@@H]2O[C@H]3[C@H](O)[C@@H](O)[C@@H](O[C@H]4[C@H](O)[C@@H](O)[C@@H](O[C@H]5[C@H](O)[C@@H](O)[C@@H](O[C@H]6[C@H](O)[C@@H](O)[C@@H](O[C@H]7[C@H](O)[C@@H](O)[C@@H](O[C@H]8[C@H](O)[C@@H](O)[C@@H](O[C@H]1[C@H](O)[C@H]2O)O[C@@H]8COCC(C)O)O[C@@H]7COCC(C)O)O[C@@H]6COCC(C)O)O[C@@H]5COCC(C)O)O[C@@H]4COCC(C)O)O[C@@H]3COCC(C)O (stereo partly drawn) [bCD, Hydroxypropyl-beta-cyclodextrin]
8.51: GO annotation: defense response (Term: defense response) ([1]; LV, ID)
4.24: GO annotation: Cytokine-cytokine receptor interaction (Term: cytokine) ([1]; LV, ID)
3.82: GO annotation: cytokine production (Term: cytokine) ([1]; LV, ID)
10.9: GO annotation: inflammatory response (Term: inflammatory response) ([1]; LV, ID)
0: GO annotation: activation of immune response (Term: immune response) ([1]; LV, ID) | GO annotation: activation of innate immune response (Term: innate immune response) ([1]; LV, ID) | GO annotation: acute inflammatory response (Term: inflammatory response) ([1]; LV, ID) | GO annotation: adaptive immune response (Term: adaptive immune response) ([1]; LV, ID) | GO annotation: apoptotic process (Term: apoptosis) ([1]; LV, ID) | GO annotation: apoptotic signaling pathway (Term: apoptosis) ([1]; LV, ID) | GO annotation: cell migration (Term: migration) ([1]; LV, ID) | GO annotation: cellular response to cytokine stimulus (Term: cytokine) ([1]; LV, ID) | GO annotation: cellular response to interferon-alpha (Term: IFN alpha) ([1]; LV, ID) | GO annotation: cellular response to stress (Term: stress) ([1]; LV, ID) | GO annotation: chemokine production (Term: chemokine) ([1]; LV, ID) | GO annotation: chemokine-mediated signaling pathway (Term: chemokine) ([1]; LV, ID) | GO annotation: chemotaxis (Term: chemotaxis) ([1]; LV, ID) | GO annotation: cytokine biosynthetic process (Term: cytokine) ([1]; LV, ID) | GO annotation: cytokine metabolic process (Term: cytokine) ([1]; LV, ID) | GO annotation: cytokine secretion (Term: cytokine) ([1]; LV, ID) | GO annotation: cytokine-mediated signaling pathway (Term: cytokine) ([1]; LV, ID) | GO annotation: death (Term: cell death) ([1]; LV, ID) | GO annotation: defense response to Gram-positive bacterium (Term: defense response) ([1]; LV, ID) | GO annotation: defense response to bacterium (Term: defense response) ([1]; LV, ID) | GO annotation: defense response to other organism (Term: defense response) ([1]; LV, ID) | GO annotation: defense response to protozoan (Term: defense response) ([1]; LV, ID) | GO annotation: defense response to virus (Term: defense response) ([1]; LV, ID) | GO annotation: granulocyte chemotaxis (Term: chemotaxis) ([1]; LV, ID) | GO annotation: granulocyte migration (Term: migration) ([1]; LV, ID) | GO annotation: immune response (Term: immune response) ([1]; LV, ID) | GO annotation: immune response-activating signal transduction (Term: immune response) ([1]; LV, ID) | GO annotation: immune response-regulating signaling pathway (Term: immune response) ([1]; LV, ID) | GO annotation: innate immune response (Term: innate immune response) ([1]; LV, ID) | GO annotation: innate immune response-activating signal transduction (Term: innate immune response) ([1]; LV, ID) | GO annotation: interferon-alpha production (Term: IFN alpha) ([1]; LV, ID) | GO annotation: intrinsic apoptotic signaling pathway (Term: apoptosis) ([1]; LV, ID) | GO annotation: leukocyte chemotaxis (Term: chemotaxis) ([1]; LV, ID) | GO annotation: leukocyte migration (Term: migration) ([1]; LV, ID) | GO annotation: leukocyte migration involved in inflammatory response (Term: inflammatory response) ([1]; LV, ID) | GO annotation: lymphocyte chemotaxis (Term: chemotaxis) ([1]; LV, ID) | GO annotation: lymphocyte migration (Term: migration) ([1]; LV, ID) | GO annotation: myeloid leukocyte migration (Term: migration) ([1]; LV, ID) | GO annotation: negative regulation of apoptotic process (Term: apoptosis) ([1]; LV, ID) | GO annotation: negative regulation of cell death (Term: cell death) ([1]; LV, ID) | GO annotation: negative regulation of cytokine production (Term: cytokine) ([1]; LV, ID) | GO annotation: negative regulation of defense response (Term: defense response) ([1]; LV, ID) | GO annotation: negative regulation of immune response (Term: immune response) ([1]; LV, ID) | GO annotation: negative regulation of innate immune response (Term: innate immune response) ([1]; LV, ID) | GO annotation: negative regulation of programmed cell death (Term: cell death) ([1]; LV, ID) | GO annotation: neutrophil chemotaxis (Term: chemotaxis) ([1]; LV, ID) | GO annotation: neutrophil migration (Term: migration) ([1]; LV, ID) | GO annotation: positive regulation of I-kappaB kinase/NF-kappaB signaling (Term: NF-kappa B signaling pathway) ([1]; LV, ID) | GO annotation: positive regulation of adaptive immune response (Term: adaptive immune response) ([1]; LV, ID) | GO annotation: positive regulation of apoptotic process (Term: apoptosis) ([1]; LV, ID) | GO annotation: positive regulation of cell death (Term: cell death) ([1]; LV, ID) | GO annotation: positive regulation of cell migration (Term: migration) ([1]; LV, ID) | GO annotation: positive regulation of chemokine production (Term: chemokine) ([1]; LV, ID) | GO annotation: positive regulation of chemotaxis (Term: chemotaxis) ([1]; LV, ID) | GO annotation: positive regulation of cytokine biosynthetic process (Term: cytokine) ([1]; LV, ID) | GO annotation: positive regulation of cytokine production (Term: cytokine) ([1]; LV, ID) | GO annotation: positive regulation of defense response (Term: defense response) ([1]; LV, ID) | GO annotation: positive regulation of immune response (Term: immune response) ([1]; LV, ID) | GO annotation: positive regulation of inflammatory response (Term: inflammatory response) ([1]; LV, ID) | GO annotation: positive regulation of innate immune response (Term: innate immune response) ([1]; LV, ID) | GO annotation: positive regulation of interferon-alpha production (Term: IFN alpha) ([1]; LV, ID) | GO annotation: positive regulation of leukocyte chemotaxis (Term: chemotaxis) ([1]; LV, ID) | GO annotation: positive regulation of leukocyte migration (Term: migration) ([1]; LV, ID) | GO annotation: positive regulation of programmed cell death (Term: cell death) ([1]; LV, ID) | GO annotation: positive regulation of response to wounding (Term: wounding) ([1]; LV, ID) | GO annotation: positive regulation of tumor necrosis factor superfamily cytokine (Term: cytokine) ([1]; LV, ID) | GO annotation: production of molecular mediator of immune response (Term: immune response) ([1]; LV, ID) | GO annotation: programmed cell death (Term: cell death) ([1]; LV, ID) | GO annotation: regulation of I-kappaB kinase/NF-kappaB signaling (Term: NF-kappa B signaling pathway) ([1]; LV, ID) | GO annotation: regulation of adaptive immune response (Term: adaptive immune response) ([1]; LV, ID) | GO annotation: regulation of apoptotic process (Term: apoptosis) ([1]; LV, ID) | GO annotation: regulation of apoptotic signaling pathway (Term: apoptosis) ([1]; LV, ID) | GO annotation: regulation of cell death (Term: cell death) ([1]; LV, ID) | GO annotation: regulation of cell migration (Term: migration) ([1]; LV, ID) | GO annotation: regulation of chemokine production (Term: chemokine) ([1]; LV, ID) | GO annotation: regulation of chemotaxis (Term: chemotaxis) ([1]; LV, ID) | GO annotation: regulation of cytokine biosynthetic process (Term: cytokine) ([1]; LV, ID) | GO annotation: regulation of defense response to virus (Term: defense response) ([1]; LV, ID) | GO annotation: regulation of defense response to virus by host (Term: defense response) ([1]; LV, ID) | GO annotation: regulation of immune response (Term: immune response) ([1]; LV, ID) | GO annotation: regulation of innate immune response (Term: innate immune response) ([1]; LV, ID) | GO annotation: regulation of interferon-alpha production (Term: IFN alpha) ([1]; LV, ID) | GO annotation: regulation of intrinsic apoptotic signaling pathway (Term: apoptosis) ([1]; LV, ID) | GO annotation: regulation of leukocyte chemotaxis (Term: chemotaxis) ([1]; LV, ID) | GO annotation: regulation of leukocyte migration (Term: migration) ([1]; LV, ID) | GO annotation: regulation of programmed cell death (Term: cell death) ([1]; LV, ID) | GO annotation: regulation of response to stress (Term: stress) ([1]; LV, ID) | GO annotation: regulation of tumor necrosis factor superfamily cytokine production (Term: cytokine) ([1]; LV, ID) | GO annotation: response to interferon-alpha (Term: IFN alpha) ([1]; LV, ID) | GO annotation: taxis (Term: chemotaxis) ([1]; LV, ID) | GO annotation: tumor necrosis factor superfamily cytokine production (Term: cytokine) ([1]; LV, ID) | IFN beta: cellular response to interferon-beta ([1]; LV, ID) | IFN beta: interferon-beta production ([1]; LV, ID) | IFN beta: positive regulation of interferon-beta production ([1]; LV, ID) | IFN beta: regulation of interferon-beta production ([1]; LV, ID) | IFN beta: response to interferon-beta ([1]; LV, ID) | IFN gamma: cellular response to interferon-gamma ([1]; LV, ID) | IFN gamma: interferon-gamma production ([1]; LV, ID) | IFN gamma: regulation of interferon-gamma production ([1]; LV, ID) | IFN gamma: response to interferon-gamma ([1]; LV, ID) | interleukin-6: interleukin-6 production ([1]; LV, ID) | interleukin-6: positive regulation of interleukin-6 production ([1]; LV, ID) | interleukin-6: regulation of interleukin-6 production ([1]; LV, ID) | interleukin-12: interleukin-12 production ([1]; LV, ID) | interleukin-12: positive regulation of interleukin-12 production ([1]; LV, ID) | interleukin-12: regulation of interleukin-12 production ([1]; LV, ID) | GO annotation: adaptive immune response based on somatic recombination of immune receptors built from immunoglobulin superfamily domains (Term: adaptive immune response) ([1]; mouse, in vivo) | GO annotation: regulation of adaptive immune response based on somatic recombination of immune receptors built from immunoglobulin superfamily domains (Term: adaptive immune response) ([1]; mouse, in vivo)
6.86: GO annotation: NF-kappa B signaling pathway (Term: NF-kappa B signaling pathway) ([1]; LV, ID)
111: Number of gene probes with statistically significant changes (sDEGs), SP, Up ([3]; i.d. administration)
59: Number of gene probes with statistically significant changes (sDEGs), SP, Down ([3]; i.d. administration)
20: Number of gene probes with statistically significant changes (sDEGs), LV, Down ([2]; i.p. administration)
107: Number of gene probes with statistically significant changes (sDEGs), LV, Up ([2]; i.d. administration)
7.33: GO annotation: regulation of inflammatory response (Term: inflammatory response) ([1]; LV, ID)
7.77: GO annotation: response to cytokine (Term: cytokine) ([1]; LV, ID)
10.6: GO annotation: TNF signaling pathway (Term: TNF signaling pathway) ([1]; LV, ID)
14: Number of gene probes with statistically significant changes (sDEGs), LV, Up ([2]; i.p. administration)
6.31: GO annotation: regulation of response to wounding (Term: wounding) ([1]; LV, ID)
6.85: GO annotation: regulation of defense response (Term: defense response) ([1]; LV, ID)
5.73: GO annotation: cell chemotaxis (Term: chemotaxis) ([1]; LV, ID)
7.76: GO annotation: Cytokine-cytokine receptor interaction|Endocytosis (Term: cytokine) ([1]; LV, ID)
4.21: GO annotation: I-kappaB kinase/NF-kappaB signaling (Term: NF-kappa B signaling pathway) ([1]; LV, ID)
10.4: GO annotation: response to stress (Term: stress) ([1]; LV, ID)
5: Number of gene probes with statistically significant changes (sDEGs), SP, Down ([3]; i.p. administration)
5.85: GO annotation: response to wounding (Term: wounding) ([1]; LV, ID)
G2: adjuvant group (cluster) in LV ([2]; hierarchical clustering) | adjuvant group (cluster) in SP ([3]; hierarchical clustering)
4: Number of gene probes with statistically significant changes (sDEGs), SP, Up ([3]; i.p. administration)
5.8: GO annotation: cell death (Term: cell death) ([1]; LV, ID)
315: Number of gene probes with statistically significant changes (sDEGs), LV, Down ([2]; i.d. administration)
4.06: GO annotation: regulation of cytokine production (Term: cytokine) ([1]; LV, ID)

Source: patent US20230021483A1, “[…] […] METHOD AND CLASSIFICATION OF PHARMACEUTICAL COMPONENTS BY USING TRANSCRIPTOMES” (National Institutes of Biomedical Innovation, Health and …, priority 2016, published 2023)
